From PMC12176268, “Structural Features and Photophysical and Antiproliferative Properties of Me2N‑pbt-Cycloplatinated Complexes with Picolinate Ligands” (Inorganic Chemistry, 2025)
Like-named read-outs stand apart in the source and are kept apart here.

Columns and labels:
MDA-MB-231 = assay: MTT cell viability assay on MDA-MB-231 cells, dark and 450 nm irradiation; type: cell-based, human; conditions: for EC50: MTT
From the text: (§1) (C∧N) cyclometalated Pt(II) complexes have been previously reported to have strong antiproliferative activities when associated with phenanthroline-based, diphosphine, acyclic diamino carbenes, or picolinate ligands. In particular, (Me2N-pbt)-cyclometalated platinum complexes have been previously reported by some of us to have antiproliferative properties in the micromolar range on a panel of cancer cell lines, prompting us to investigate the anticancer properties of complexes 1–4 in dark conditions and, considering their high quantum yield (ϕΔ) of ^1O2 generation, under irradiation conditions. Due to the poor solubility of the complexes in an aqueous environment, complexes 1–4 were first dissolved in DMSO and diluted in the culture media to reach a final concentration of 1% DMSO when incubated with the cells. All complexes were screened against the so-called “triple-negative” breast cancer cell line MDA-MB-231, lung adenocarcinoma cell line A549, and the noncancerous breast cell line MCF-10A for 72 h in dark conditions and under 5 min irradiation at 450 nm (see Experimental Section for details). The irradiation time was kept short to prevent light-induced toxicity of the energetic wavelength observed at longer irradiation times (data not shown). The measurement of the effective concentration at 50% (EC50) was carried out using the classical MTT assay, and the data are provided in Table .
(§2) In dark conditions, we could notice a strong influence of substituents on the picolinate ligands. […] This can be correlated with its poor stability in the culture medium mentioned above, which might reduce its cellular uptake. […] However, in dark conditions, no particular selectivity for cancer cells could be observed with similar activity measured against the noncancerous cell line MCF-10A. For the “light” experiments, the cells were preincubated with the complexes for 4 h in the dark, irradiated at 450 nm for 5 min, and then put back in the dark until 72 h. The photoactivity index (PI) values, defined as the ratio between the EC50 in dark conditions and the EC50 after irradiation for each cell line, are shown in Figure .
(§3) The human lung adenocarcinoma cell line A549 and human breast cancer cell line MDA-MB-231 were cultivated in DMEM (Dulbecco’s modified Eagle’s medium) containing GlutaMax I supplemented with 10% FBS at 37 °C in a humidified atmosphere and 5% CO2. The noncancerous cell line MCF-10A was maintained in DMEM:F12 (1:1) cell culture media, 5% heat-inactivated horse serum, supplemented with HEPES (20 mM), L-glutamine (2 mM), epidermal growth factor (20 ng/mL), hydrocortisone (500 ng/mL), cholera toxin (100 ng/mL), and insulin (10 μg/mL). Cell viability was evaluated by using a colorimetric method based on the tetrazolium salt MTT [3-(4,5-dimethylthiazol-2-yl)-2,5-diphenyltetrazolium bromide], which is reduced by viable cells to yield purple formazan crystals. Cells were seeded in 96-well plates at a density of 40000 cells/mL (100 μL per well). Stock solutions were prepared in DMSO for complexes 1–4 and in water for cisplatin. […] For dark experiments, after overnight attachment, a dilution series of the compounds was added to the medium, and the cells were incubated for a further 72 h. For the irradiated experiments, after overnight attachment, a dilution series of the compounds was added to the medium, and the cells were preincubated for 4 h. The cells were then irradiated at 450 nm for 5 min with a Kessil Lamp (power: 3 mW/cm^2, 1.13 × 10^–8 Einstein/s at 20 cm distance between the light source and 96-well plate) and the incubation was continued until 72 h. After 72 h, the medium was removed and the cells were incubated with MTT solution in PBS (10 μL of 5 mg/mL) for 2–3 h. The formed purple formazan crystals were dissolved in 100 μL of DMSO by thorough shaking, and the absorbance at 580 nm was read using a microplate reader (FLUOstar OPTIMA, BMG Labtech). Each test was performed with at least 3 replicates and repeated at least 3 times. […]

[1] = biological target: bovine serum albumin (BSA) (Bos taurus, UniProt P02769); assay: Emission and UV–vis titration of complex 3 with BSA; type: binding; conditions: 10 μM complex, BSA 0–50 μM, H2O/DMSO 95/5, λexc 450 nm
Chain of bovine serum albumin (BSA) (P02769 25-607): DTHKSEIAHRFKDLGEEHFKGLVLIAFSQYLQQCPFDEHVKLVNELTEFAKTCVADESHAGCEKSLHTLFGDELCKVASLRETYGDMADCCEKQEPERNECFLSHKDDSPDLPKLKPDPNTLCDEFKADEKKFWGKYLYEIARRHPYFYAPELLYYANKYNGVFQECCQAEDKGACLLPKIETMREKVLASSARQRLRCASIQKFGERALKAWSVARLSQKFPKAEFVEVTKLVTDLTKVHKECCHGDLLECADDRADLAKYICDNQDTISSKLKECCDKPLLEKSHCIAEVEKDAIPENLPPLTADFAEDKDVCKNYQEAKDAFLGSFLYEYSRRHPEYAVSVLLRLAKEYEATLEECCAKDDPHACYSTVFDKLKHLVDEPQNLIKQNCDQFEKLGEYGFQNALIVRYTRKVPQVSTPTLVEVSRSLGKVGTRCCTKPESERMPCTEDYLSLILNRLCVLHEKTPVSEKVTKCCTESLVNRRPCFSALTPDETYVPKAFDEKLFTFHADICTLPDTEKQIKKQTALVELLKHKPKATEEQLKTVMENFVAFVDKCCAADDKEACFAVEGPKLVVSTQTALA
Experimental: The possible interaction of these Pt(II) complexes with the model protein bovine serum albumin (BSA) was studied by fluorescence and UV–vis spectroscopy. […] The effect of increasing the amount of BSA (from 0 to 50 μM) on solutions of complex 3 in mixtures of H2O/DMSO (95/5 v/v) while keeping the concentration of 3 (10 μM) constant was evaluated. Upon addition of BSA (3/BSA 1:0.25), a slight blue shift of the emission band from 510 to 495 nm is observed, and a clear switch-on of the monomer phosphorescence (^3ILCT), as a structured band slightly blue-shifted (ca. 574 nm) in relation to the complex in DMSO is observed. The intensity of this latter band reaches a maximum when the 3/BSA ratio was ca 1:1 (Figure ). […] In particular, the decrease in fluorescence emission and the switch-on of the monomer phosphorescence can be attributed to the binding of 3 to the hydrophobic pockets of the protein, which increases the rigidity of its environment and decreases the nonradiative constant.
For the BSA binding experiment, solutions of complex 3 with BSA in mixtures of DMSO/H2O (5/95 v/v) were prepared, keeping the concentration of 3 (10 μM) constant and increasing the amount of BSA (from 0 to 50 μM). […] The fluorescence intensities were then measured at λexc = 450 nm, and the emission fluorescence spectra were recorded in the wavelength range λ = 400–800 nm.

A549 = assay: MTT cell viability assay on A549 cells, dark and 450 nm irradiation; type: cell-based, human; conditions: for EC50: MTT
From the text: as §1, §2, §3

## [Pt(Me2N-pbt)(3-OH-pic-κN,O)] [Complex 3]
MDA-MB-231; 4 h preincubation, 5 min irradiation at 450 nm, then dark until 72 h, read-out: EC50 MDA-MB-231 light
  EC50: 220 ± 30 nM
MDA-MB-231; 72 h incubation at 37 °C, dark, read-out: EC50 MDA-MB-231 dark
  EC50: 2600 ± 800 nM
MDA-MB-231; dark conditions
  reduction of the antiproliferative activity relative to 1, MDA-MB-231: ~5 times
MDA-MB-231; dark conditions, versus MCF-10A
  lower activity toward MDA-MB-231 cells compared to the noncancerous cells: 2 fold
MDA-MB-231; upon irradiation (450 nm, 5 min), versus MCF-10A
  activity on MDA-MB-231 compared to the noncancerous cell line: twice as active
[1]
  interaction with BSA (changes of emission and UV–vis spectra): interacts strongly with BSA
A549; 5 min irradiation at 450 nm
  photoactivity index (PI), EC50 dark / EC50 after irradiation, A549: 5.6
A549; 4 h preincubation, 5 min irradiation at 450 nm, then dark until 72 h, read-out: EC50 A549 light
  EC50: 1100 ± 80 nM
A549; 72 h incubation at 37 °C, dark, read-out: EC50 A549 dark
  EC50: 6100 ± 200 nM
A549; dark conditions
  reduction of the antiproliferative activity relative to 1, A549: ~5 times
